Results from patent publication US20130115133A1, “INACTIVATION OF MICROORGANISMS WITH MULTIDRUG RESISTANCE INHIBITORS AND PHENOTHIAZINIUMS” (priority 2004, published 2013).
Like-named read-outs stand apart in the source and are kept apart here. Non-standard residues stand in square brackets, D forms with d. Residues, ends and D or L forms follow the SMILES beside them. ξ: configuration not given here. *: point of attachment. ξR = N=C(N)NCCCC(N)C(=O)O; βNA = c1ccc2cc(N*)ccc2c1

Experiments:
[1] = system: S. aureus NorA-, wild type, and NorA+; experiment: Photodynamic inactivation (PDI), light-dose dependent phototoxicity; format: cell-based, Staphylococcus aureus; details: 10 μM; for light dose by which strain is eliminated: NorA knockout strain, 635-nm light 100 mWcm^-2; for light dose by which strain is eliminated / logs of killing: 30 min; for logs less killing than wild-type: NorA overexpression strain, 635-nm light; for overall order of efficiency of killing: S. aureus NorA strains; for logs less killing compared to wild-type: NorA overexpressing strain; for logs of killing: wild-type strain
Description: (§1) A polylysine-chlorine6 conjugate (pL-ce6), and Rose Bengal (RB) (Sigma-Aldrich) were used as non-phenothiazinium-based PS (FIG. 3). Stock solutions were prepared in water at a concentration of 2-mM and stored for a maximum of 2 weeks at 4° C. in the dark before use. Spectra of stock solutions diluted 140-280 fold in methanol were recorded on an UV-visible spectroscopy system (Waldbronn, Germany). A non-coherent light source with interchangeable fiber bundles (LC122, LumaCare, London, UK) was employed. Thirty-nm band pass filters at ranges 540±15 nm for RB, 635±15 nm for TBO, and DMMB, and 660±15 nm for MB and pLce6 were used. The total power output provided out of the fiber bundle ranged from 300-700 mW. The spot was arranged to give an irradiance of 100 mW/cm^2.
(§2) Bacterial suspensions in PBS (initial concentration 10^8 cells mL^−1) were incubated with PS in the dark at room temperature for 30 minutes at concentrations varying from 1-μM to 300-μM. The cell suspensions were centrifuged at 12000 rpm and then washed twice with sterile PBS. The bacterial suspensions were placed in wells of 96 well micro titer plates (Fisher Scientific) and illuminated with appropriate light at room temperature. Fluences ranged from 0 to 20 Jcm^−2 at a fluence rate of 100 mWcm^−2. During illumination, aliquots of […] were taken to determine the colony-forming units. The contents of the wells were mixed before sampling. The aliquots were serially diluted 10-fold in PBS to give dilutions of 10^−1-10^−6 times the original concentrations and were streaked horizontally on square BHI agar plates as described by Jett et al (1997). This allowed a maximum of seven logs of killing to be measured. Plates were incubated at 37° C. overnight. Two types of control conditions were used: illumination in the absence of photosensitizer and incubation with photosensitizer in the dark.
The three isogenic strains of S. aureus were incubated with 10 μM MB for 30 minutes and then washed free of unbound dye by centrifugation and resuspension in PBS and illuminated with 100 mWcm^−2 660-nm light, and the survival fractions determined as described above.
To establish the recognition of phenothiazinium dyes as a class by NorA, the experiments described in FIG. 4 were repeated with the phenothiazinium compounds TBO and DMMB. Incubation with the photosensitizer was for 30 min followed by a wash. Bacteria were then illuminated with 100 mWcm^−2 635-nm light for both TBO and DMMB. The results shown in FIGS. 7a and 7b show a similar pattern to the susceptibilities as was found for MB. The NorA knockout strain is eliminated by 1 J/cm2 in the case of TBO and by 0.5 J/cm2 in the case of DMMB. […]

[2] = system: P. aeruginosa MexAB-, wild type and MexAB+; format: cell-based, Pseudomonas aeruginosa; details: wild-type strain; 300 μM; after 20 J/cm2
Description: A polylysine-chlorine6 conjugate (pL-ce6), and Rose Bengal (RB) (Sigma-Aldrich) were used as non-phenothiazinium-based PS (FIG. 3). Stock solutions were prepared in water at a concentration of 2-mM and stored for a maximum of 2 weeks at 4° C. in the dark before use. Spectra of stock solutions diluted 140-280 fold in methanol were recorded on an UV-visible spectroscopy system (Waldbronn, Germany). A non-coherent light source with interchangeable fiber bundles (LC122, LumaCare, London, UK) was employed. […] The total power output provided out of the fiber bundle ranged from 300-700 mW. The spot was arranged to give an irradiance of 100 mW/cm^2.
Bacterial suspensions in PBS (initial concentration 10^8 cells mL^−1) were incubated with PS in the dark at room temperature for 30 minutes at concentrations varying from 1-μM to 300-μM. The cell suspensions were centrifuged at 12000 rpm and then washed twice with sterile PBS. The bacterial suspensions were placed in wells of 96 well micro titer plates (Fisher Scientific) and illuminated with appropriate light at room temperature. Fluences ranged from 0 to 20 Jcm^−2 at a fluence rate of 100 mWcm^−2. During illumination, aliquots of 10 were taken to determine the colony-forming units. The contents of the wells were mixed before sampling. […] This allowed a maximum of seven logs of killing to be measured. […]

[3] = system: E. coli wild type and TolC-; format: cell-based, Escherichia coli
Description: as §1, §2
It was necessary to use higher overall PDI doses to kill the Gram-negative E. coli compared to the Gram-positive S. aureus. A concentration of MB of 50 μM was selected with the same 30-minute incubation and wash by centrifugation, together with light doses up to 20 J/cm^2.

P. aeruginosa PAO1 = format: cell-based, Pseudomonas aeruginosa; details: inhibitor 10 ug/ml with TBO 250 μM, 30 min, wash; 660-nm light 100 mWcm^-2

SMILES: Cc1cc(N(C)C)cc2[s+]c3cc(N(C)C)cc(C)c3nc12 [DMMB, 1,9-dimethylmethylene blue]
- light dose by which strain is eliminated ([1]; wash): ≤ 0.5 J/cm2
- logs less killing than wild-type [1]: roughly 2 logs
- overall order of efficiency of killing [1]: DMMB>TBO>MB

SMILES: O=C1OC2(c3cc(I)c(O)c(I)c3Oc3c2cc(I)c(O)c3I)c2c(Cl)c(Cl)c(Cl)c(Cl)c21 [RB, Rose Bengal]
- differences in killing between the three NorA phenotypes ([1]; wash, 540-nm light 100 mWcm^-2): no differences in killing

SMILES: CN(C)c1ccc2nc3ccc(=[N+](C)C)cc-3sc2c1 [MB, methylene blue]
- logs of killing [2]: 5 logs
- logs more killing than wild-type ([3]; TolC knock-out mutant, 50 μM, 30 min, wash, at 5 J/cm^2): 2 logs
- logs more killing than wild-type ([3]; TolC knock-out mutant, 50 μM, at 10 J/cm^2): three
- killing ([3]; TolC knock-out mutant, 50 μM, light doses higher than 10 J/cm^2 (up to 20 J/cm^2)): totally eliminated
- killing ([3]; TolC knock-out, 250 μM, after 20 J/cm^2 (data not shown)): totally eliminated
- killing ([3]; wild-type, 250 μM, after 20 J/cm^2 (data not shown)): totally eliminated
- killing ([1]; NorA knock-out, 660-nm light, after 1 J/cm^2): complete killing
- logs less killing compared to wild-type ([1]; 660-nm light, at 1 J/cm^2): 1 log
- logs less killing compared to wild-type ([1]; 660-nm light, at 2 J/cm^2): 2 logs
- logs less killing compared to wild-type ([1]; 660-nm light, at 4 J/cm^2): 3 logs
- logs of killing ([1]; wash, 660-nm light 100 mWcm^-2, after 1 J/cm^2): 3 logs
- logs of killing ([1]; wash, 660-nm light, after 2 J/cm^2): 5 logs
- logs of killing ([1]; wash, 660-nm light, after 4 J/cm^2): 7 logs

SMILES: Cc1cc2nc3ccc(N(C)C)cc3[s+]c2cc1N.[Cl-] [TBO, Toluidine blue O]
- light dose by which strain is eliminated ([1]; wash): ≤ 1 J/cm2
- logs less killing than wild-type [1]: roughly 2 logs
- overall order of efficiency of killing [1]: DMMB>TBO>MB

SMILES: NC(N)=NCCCC(NC(=O)[C@@H](N)Cc1ccccc1)C(=O)Nc1ccc2ccccc2c1 (stereo partly drawn) [MC207110] (H-Phe-[ξR]-βNA)
- logs of killing (P. aeruginosa PAO1): 5 logs
